{"source": "patent US10765114B2", "about": "“4-amino-6-(pyridyl and 2-substitutedphenyl)-picolinates and 6-amino-2-(pyridyl and 2-substitutedphenyl)-pyrimidine-4-carboxylates and their use as herbicides” (Dow AgroSciences LLC, priority 2013, dated 2020)", "data": [{"system": "not given", "assay": "not given", "settings": "not given", "units": {"melting point": "°C"}, "values": [{"smiles": "COC(=O)c1nc(-c2ccc(OC)nc2Cl)c(F)c(N)c1Cl", "note": "[Compound 88, methyl 4-amino-2′,5-dichloro-3-fluoro-6′-methoxy-[2,3′-bipyridine]-6-carboxylate]", "melting point": "164 to 165"}]}, {"system": "Key Grass and Sedge Weeds as well as Grass Crops", "assay": "Post-Emergent Test II (Table 6)", "assay_type": "in vivo", "settings": "post-emergence, 336 h, CYPSS, 70 g ai/ha, 14 days after application, read-out: Visual Growth Reduction (%) 14 Days After Application CYPSS", "in_short": "(§1)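 Growth stage at treatment: first or second true leaf. Application: compound in acetone/DMSO diluted into an adjuvant-containing aqueous mix, sprayed at 187 L/ha at several rates. Assessment: visual 0-100% injury at 14 days against untreated plants.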", "units": {"pest or weed control at 70 g/ha": "%"}, "values": [{"smiles": "COC(=O)c1nc(-c2ccc(OC)nc2Cl)c(F)c(N)c1Cl", "note": "[Compound 88, methyl 4-amino-2′,5-dichloro-3-fluoro-6′-methoxy-[2,3′-bipyridine]-6-carboxylate]", "pest or weed control at 70 g/ha": "0 to 29"}]}, {"system": "Key Grass and Sedge Weeds as well as Grass Crops", "assay": "Post-Emergent Test II (Table 6)", "assay_type": "in vivo", "settings": "post-emergence, 336 h, CYPSS, 140 g ai/ha, 14 days after application, read-out: Visual Growth Reduction (%) 14 Days After Application CYPSS", "in_short": "as §1", "units": {"pest or weed control at 140 g/ha": "%"}, "values": [{"smiles": "COC(=O)c1nc(-c2ccc(OC)nc2Cl)c(F)c(N)c1Cl", "note": "[Compound 88, methyl 4-amino-2′,5-dichloro-3-fluoro-6′-methoxy-[2,3′-bipyridine]-6-carboxylate]", "pest or weed control at 140 g/ha": "0 to 29"}]}, {"system": "Key Grass and Sedge Weeds as well as Grass Crops", "assay": "Post-Emergent Test II (Table 6)", "assay_type": "in vivo", "settings": "post-emergence, 336 h, DIGSA: crabgrass (Digitaria sanguinalis), 70 g ai/ha, 14 days after application, read-out: Visual Growth Reduction (%) 14 Days After Application DIGSA", "in_short": "as §1", "units": {"pest or weed control at 70 g/ha": "%"}, "values": [{"smiles": "COC(=O)c1nc(-c2ccc(OC)nc2Cl)c(F)c(N)c1Cl", "note": "[Compound 88, methyl 4-amino-2′,5-dichloro-3-fluoro-6′-methoxy-[2,3′-bipyridine]-6-carboxylate]", "pest or weed control at 70 g/ha": "0 to 29"}]}, {"system": "Key Grass and Sedge Weeds as well as Grass Crops", "assay": "Post-Emergent Test II (Table 6)", "assay_type": "in vivo", "settings": "post-emergence, 336 h, DIGSA: crabgrass (Digitaria sanguinalis), 140 g ai/ha, 14 days after application, read-out: Visual Growth Reduction (%) 14 Days After Application DIGSA", "in_short": "as §1", "units": {"pest or weed control at 140 g/ha": "%"}, "values": [{"smiles": "COC(=O)c1nc(-c2ccc(OC)nc2Cl)c(F)c(N)c1Cl", "note": "[Compound 88, methyl 4-amino-2′,5-dichloro-3-fluoro-6′-methoxy-[2,3′-bipyridine]-6-carboxylate]", "pest or weed control at 140 g/ha": "0 to 29"}]}, {"system": "Key Grass and Sedge Weeds as well as Grass Crops", "assay": "Post-Emergent Test II (Table 6)", "assay_type": "in vivo", "settings": "post-emergence, 336 h, ECHSS, 70 g ai/ha, 14 days after application, read-out: Visual Growth Reduction (%) 14 Days After Application ECHSS", "in_short": "as §1", "units": {"pest or weed control at 70 g/ha": "%"}, "values": [{"smiles": "COC(=O)c1nc(-c2ccc(OC)nc2Cl)c(F)c(N)c1Cl", "note": "[Compound 88, methyl 4-amino-2′,5-dichloro-3-fluoro-6′-methoxy-[2,3′-bipyridine]-6-carboxylate]", "pest or weed control at 70 g/ha": "0 to 29"}]}, {"system": "Key Grass and Sedge Weeds as well as Grass Crops", "assay": "Post-Emergent Test II (Table 6)", "assay_type": "in vivo", "settings": "post-emergence, 336 h, ECHSS, 140 g ai/ha, 14 days after application, read-out: Visual Growth Reduction (%) 14 Days After Application ECHSS", "in_short": "as §1", "units": {"pest or weed control at 140 g/ha": "%"}, "values": [{"smiles": "COC(=O)c1nc(-c2ccc(OC)nc2Cl)c(F)c(N)c1Cl", "note": "[Compound 88, methyl 4-amino-2′,5-dichloro-3-fluoro-6′-methoxy-[2,3′-bipyridine]-6-carboxylate]", "pest or weed control at 140 g/ha": "0 to 29"}]}, {"system": "Key Grass and Sedge Weeds as well as Grass Crops", "assay": "Post-Emergent Test II (Table 6)", "assay_type": "in vivo", "settings": "post-emergence, 336 h, ORYSS (crop), 70 g ai/ha, 14 days after application, read-out: Visual Growth Reduction (%) 14 Days After Application ORYSS", "in_short": "as §1", "units": {"pest or weed control at 70 g/ha": "%"}, "values": [{"smiles": "COC(=O)c1nc(-c2ccc(OC)nc2Cl)c(F)c(N)c1Cl", "note": "[Compound 88, methyl 4-amino-2′,5-dichloro-3-fluoro-6′-methoxy-[2,3′-bipyridine]-6-carboxylate]", "pest or weed control at 70 g/ha": "0 to 29"}]}, {"system": "Key Grass and Sedge Weeds as well as Grass Crops", "assay": "Post-Emergent Test II (Table 6)", "assay_type": "in vivo", "settings": "post-emergence, 336 h, ORYSS (crop), 140 g ai/ha, 14 days after application, read-out: Visual Growth Reduction (%) 14 Days After Application ORYSS", "in_short": "as §1", "units": {"pest or weed control at 140 g/ha": "%"}, "values": [{"smiles": "COC(=O)c1nc(-c2ccc(OC)nc2Cl)c(F)c(N)c1Cl", "note": "[Compound 88, methyl 4-amino-2′,5-dichloro-3-fluoro-6′-methoxy-[2,3′-bipyridine]-6-carboxylate]", "pest or weed control at 140 g/ha": "0 to 29"}]}, {"system": "Key Grass and Sedge Weeds as well as Grass Crops", "assay": "Post-Emergent Test II (Table 6)", "assay_type": "in vivo", "settings": "post-emergence, 336 h, SETFA: giant foxtail (Setaria faberi), 70 g ai/ha, 14 days after application, read-out: Visual Growth Reduction (%) 14 Days After Application SETFA", "in_short": "as §1", "units": {"pest or weed control at 70 g/ha": "%"}, "values": [{"smiles": "COC(=O)c1nc(-c2ccc(OC)nc2Cl)c(F)c(N)c1Cl", "note": "[Compound 88, methyl 4-amino-2′,5-dichloro-3-fluoro-6′-methoxy-[2,3′-bipyridine]-6-carboxylate]", "pest or weed control at 70 g/ha": "0 to 29"}]}, {"system": "Key Grass and Sedge Weeds as well as Grass Crops", "assay": "Post-Emergent Test II (Table 6)", "assay_type": "in vivo", "settings": "post-emergence, 336 h, SETFA: giant foxtail (Setaria faberi), 140 g ai/ha, 14 days after application, read-out: Visual Growth Reduction (%) 14 Days After Application SETFA", "in_short": "as §1", "units": {"pest or weed control at 140 g/ha": "%"}, "values": [{"smiles": "COC(=O)c1nc(-c2ccc(OC)nc2Cl)c(F)c(N)c1Cl", "note": "[Compound 88, methyl 4-amino-2′,5-dichloro-3-fluoro-6′-methoxy-[2,3′-bipyridine]-6-carboxylate]", "pest or weed control at 140 g/ha": "45 to 59"}]}, {"system": "Key Grass and Sedge Weeds as well as Grass Crops", "assay": "Post-Emergent Test II (Table 6)", "assay_type": "in vivo", "settings": "post-emergence, 336 h, SORVU: grain sorghum (Sorghum vulgare), 70 g ai/ha, 14 days after application, read-out: Visual Growth Reduction (%) 14 Days After Application SORVU", "in_short": "as §1", "units": {"pest or weed control at 70 g/ha": "%"}, "values": [{"smiles": "COC(=O)c1nc(-c2ccc(OC)nc2Cl)c(F)c(N)c1Cl", "note": "[Compound 88, methyl 4-amino-2′,5-dichloro-3-fluoro-6′-methoxy-[2,3′-bipyridine]-6-carboxylate]", "pest or weed control at 70 g/ha": "0 to 29"}]}, {"system": "Key Grass and Sedge Weeds as well as Grass Crops", "assay": "Post-Emergent Test II (Table 6)", "assay_type": "in vivo", "settings": "post-emergence, 336 h, SORVU: grain sorghum (Sorghum vulgare), 140 g ai/ha, 14 days after application, read-out: Visual Growth Reduction (%) 14 Days After Application SORVU", "in_short": "as §1", "units": {"pest or weed control at 140 g/ha": "%"}, "values": [{"smiles": "COC(=O)c1nc(-c2ccc(OC)nc2Cl)c(F)c(N)c1Cl", "note": "[Compound 88, methyl 4-amino-2′,5-dichloro-3-fluoro-6′-methoxy-[2,3′-bipyridine]-6-carboxylate]", "pest or weed control at 140 g/ha": "0 to 29"}]}, {"system": "Key Grass and Sedge Weeds as well as Grass Crops", "assay": "Post-Emergent Test II (Table 6)", "assay_type": "in vivo", "settings": "post-emergence, 336 h, TRZSS (crop), 70 g ai/ha, 14 days after application, read-out: Visual Growth Reduction (%) 14 Days After Application TRZSS", "in_short": "as §1", "units": {"pest or weed control at 70 g/ha": "%"}, "values": [{"smiles": "COC(=O)c1nc(-c2ccc(OC)nc2Cl)c(F)c(N)c1Cl", "note": "[Compound 88, methyl 4-amino-2′,5-dichloro-3-fluoro-6′-methoxy-[2,3′-bipyridine]-6-carboxylate]", "pest or weed control at 70 g/ha": "0 to 29"}]}, {"system": "Key Grass and Sedge Weeds as well as Grass Crops", "assay": "Post-Emergent Test II (Table 6)", "assay_type": "in vivo", "settings": "post-emergence, 336 h, TRZSS (crop), 140 g ai/ha, 14 days after application, read-out: Visual Growth Reduction (%) 14 Days After Application TRZSS", "in_short": "as §1", "units": {"pest or weed control at 140 g/ha": "%"}, "values": [{"smiles": "COC(=O)c1nc(-c2ccc(OC)nc2Cl)c(F)c(N)c1Cl", "note": "[Compound 88, methyl 4-amino-2′,5-dichloro-3-fluoro-6′-methoxy-[2,3′-bipyridine]-6-carboxylate]", "pest or weed control at 140 g/ha": "0 to 29"}]}]}
